The results in this text go back to US10696651B2, “Heterocyclic compound” (Takeda Pharmaceutical Company Limited, priority 2016, dated 2020).

Structures can show the parent of a compound that is named as a salt. Where two headings read alike, the source gives them in different places.

In test [1] the target is T1, human GCN2 full-length protein (Homo sapiens, UniProt Q9P2K8).
T1 construct: purchased Carna Biosciences, Inc
Kind of test: GCN2 enzyme inhibition assay (LanthaScreen TR-FRET). It counts as biochemical. To be noted: GCN2 enzyme inhibitory activity at compound concentration of 3 μM, read-out: inhibitory rate. The method, then:
GCN2 enzyme was preserved at -70° C. and used. The GCN2 enzyme inhibitory activity of the test compound was measured by the LanthaScreenTR-FRET (Time Resolved Fluorescence Resonance Energy Transfer) method (manufactured by ThermoFisher). […] Then, GCN2 enzyme solution diluted with the assay buffer was added by 2 μL to each well. The enzyme solution was not added to a part of the wells to give a control group. After incubation at room temperature for 1 hr, 570 μM ATP solution containing 390 nM […] physiological protein substrate (ThermoFisher) was added by 2 μL. After reaction at room temperature for 1 hr, TR-FRET Dilution Buffer (ThermoFisher) containing 4 nM Terbium-labeled anti-elF2alpha [[…]] antibody (ThermoFisher) dissolved therein was added by 2 μL to each well. After standing at room temperature for 1 hr, time decomposition fluorescence measurement was performed on platereader Envision (manufactured by PerkinElmer).

The subject of test [2] is osteosarcoma cell line U-2-OS. The experiment in a line: In vitro cell proliferation inhibition assay (CellTiter-Glo, low amino acid media). It counts as cell-based. The note with it: McCoy's 5A low amino acid media; for inhibition at 0.1 µM: Homo sapiens, U2OS, 72 h, cell proliferation inhibitory rate; for inhibitory rate: 72 hr. The method, then: A cell suspension (40 μL) (1000 cells/well) of osteosarcoma cell line U-2-OS obtained from ATCC (American Type Culture Collection) was seeded on a 384 plate using McCoy's 5A low amino acid media (amino acid content 25%). The seeded cells were incubated (37° C., 5% CO2) overnight to 24 hr at the longest. Each example compound was dissolved (10 mM) in DMSO, delivered to wells by using TECAN HP D300 (TECAN), and the plate was incubated for 72 hr (37° C., 5% CO2). A well without addition of compound was treated similarly as a control group. Celltiter-Glo (registered trade mark) Luminescent Cell Viability Assay reagent (Promega KK) equilibrated at room temperature was added (40 μL/well) to cells in each well before compound treatment (untreated group) and 72 hours after compound treatment. After incubation for 10 min, cell proliferation inhibitory rate was measured by the amount of ATP which is a cell viability marker. Luminescence of cells showing ATP amount was measured using ARVO MX (PerkinElmer). Based on the luminescence values of the untreatment group, the control group without addition of Example compound solution, and the treatment group with addition of Example compound, the cell proliferation inhibitory rate (%) of the test compound at a compound concentration of 100 nM was calculated by the following formula and the results thereof are shown in Tables 4-1, 4-2. Inhibitory rate (%)=(1−(luminescence value of treatment group−luminescence value of untreatment group)÷(luminescence value of control group−luminescence value of untreatment group))×100

T1 sequence (Q9P2K8 whole entry): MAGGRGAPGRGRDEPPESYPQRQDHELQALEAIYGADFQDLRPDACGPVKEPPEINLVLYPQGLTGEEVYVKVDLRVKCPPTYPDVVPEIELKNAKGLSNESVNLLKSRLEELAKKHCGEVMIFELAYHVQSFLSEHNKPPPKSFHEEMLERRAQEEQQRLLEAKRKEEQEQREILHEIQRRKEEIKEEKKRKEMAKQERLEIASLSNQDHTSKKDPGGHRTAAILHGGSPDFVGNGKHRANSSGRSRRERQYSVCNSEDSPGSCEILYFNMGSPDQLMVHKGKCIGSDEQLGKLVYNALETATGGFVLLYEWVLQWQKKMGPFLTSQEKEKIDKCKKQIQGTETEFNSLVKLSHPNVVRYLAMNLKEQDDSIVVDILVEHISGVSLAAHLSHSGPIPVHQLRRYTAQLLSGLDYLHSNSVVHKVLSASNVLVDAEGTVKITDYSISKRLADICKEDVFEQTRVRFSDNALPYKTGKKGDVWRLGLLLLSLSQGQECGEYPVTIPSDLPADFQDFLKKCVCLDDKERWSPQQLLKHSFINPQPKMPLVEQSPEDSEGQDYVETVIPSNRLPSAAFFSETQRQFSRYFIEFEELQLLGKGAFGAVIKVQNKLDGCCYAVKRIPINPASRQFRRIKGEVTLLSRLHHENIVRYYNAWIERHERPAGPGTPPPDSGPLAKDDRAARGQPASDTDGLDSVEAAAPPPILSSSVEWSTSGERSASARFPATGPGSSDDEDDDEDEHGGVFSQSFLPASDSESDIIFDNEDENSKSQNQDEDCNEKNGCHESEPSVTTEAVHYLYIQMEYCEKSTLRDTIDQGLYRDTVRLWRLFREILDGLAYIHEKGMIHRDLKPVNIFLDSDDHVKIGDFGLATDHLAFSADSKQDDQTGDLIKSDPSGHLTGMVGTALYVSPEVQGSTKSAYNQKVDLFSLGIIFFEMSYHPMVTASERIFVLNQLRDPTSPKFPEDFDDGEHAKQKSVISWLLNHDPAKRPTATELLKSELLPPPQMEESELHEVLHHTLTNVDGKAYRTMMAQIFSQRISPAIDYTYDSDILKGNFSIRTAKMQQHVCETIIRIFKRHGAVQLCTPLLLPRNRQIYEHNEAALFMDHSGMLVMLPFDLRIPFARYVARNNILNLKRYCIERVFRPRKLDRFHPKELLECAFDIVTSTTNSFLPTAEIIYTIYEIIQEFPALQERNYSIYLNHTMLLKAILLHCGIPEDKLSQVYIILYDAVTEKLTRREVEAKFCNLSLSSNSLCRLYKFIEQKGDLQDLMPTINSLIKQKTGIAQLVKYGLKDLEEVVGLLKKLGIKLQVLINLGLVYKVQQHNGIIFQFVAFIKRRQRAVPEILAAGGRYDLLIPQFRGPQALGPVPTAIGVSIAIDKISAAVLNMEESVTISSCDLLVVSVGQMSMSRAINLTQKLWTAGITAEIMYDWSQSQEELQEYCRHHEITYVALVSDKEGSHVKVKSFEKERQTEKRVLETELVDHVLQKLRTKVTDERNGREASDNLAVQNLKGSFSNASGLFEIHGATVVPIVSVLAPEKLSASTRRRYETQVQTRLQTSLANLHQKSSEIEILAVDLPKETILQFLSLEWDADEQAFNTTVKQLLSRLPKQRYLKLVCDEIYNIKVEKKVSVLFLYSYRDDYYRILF

Consider `O=S(=O)(Nc1ccc(F)c(C#Cc2cnc3[nH]ncc3c2)c1F)c1cc(Cl)cc(CO)c1Cl` [Example 1, 2,5-dichloro-N-(2,4-difluoro-3-(1H-pyrazolo[3,4-b]pyridin-5-ylethynyl)phenyl)-3-(hydroxymethyl)benzenesulfonamide], for which, in test [1] (Table 3-1), the inhibition at 3 µM came to 100%. This compound also gave an inhibition at 0.1 µM in test [2] (Table 4-1) of 66%. Taken in the same sequence, the figures for `Cc1ncc(Cl)cc1S(=O)(=O)Nc1ccc(F)c(C#Cc2cnc3[nH]ncc3c2)c1F` [Example 2, 5-chloro-N-(2,4-difluoro-3-(1H-pyrazolo[3,4-b]pyridin-5-ylethynyl)phenyl)-2-methylpyridine-3-sulfonamide] were 100% and 92%. `COc1ncc(Cl)cc1S(=O)(=O)Nc1ccc(F)c(C#Cc2cnc3[nH]ncc3c2)c1F` [Example 5, 5-chloro-N-(2,4-difluoro-3-(1H-pyrazolo[3,4-b]pyridin-5-ylethynyl)phenyl)-2-methoxypyridine-3-sulfonamide]: in test [1] (Table 3-1), the inhibition at 3 µM came out at 99%. The inhibition at 0.1 µM in test [2] (Table 4-1) stood at 91%. For `O=S(=O)(Nc1ccc(F)c(C#Cc2cnc3[nH]ncc3c2)c1F)c1cc(Cl)cc2c1OCC2` [Example 8, 5-chloro-N-(2,4-difluoro-3-(1H-pyrazolo[3,4-b]pyridin-5-ylethynyl)phenyl)-2,3-dihydro-1-benzofuran-7-sulfonamide], the inhibition at 3 µM in test [1] (Table 3-1) turned out to be 100%. This compound also registered an inhibition at 0.1 µM in test [2] (Table 4-1) of 78%. With `O=S(=O)(Nc1ccc(F)c(C#Cc2cnc3[nH]ncc3c2)c1F)c1cc(Cl)ccc1Cl` [Example 10, 2,5-dichloro-N-(2,4-difluoro-3-(1H-pyrazolo[3,4-b]pyridin-5-ylethynyl)phenyl)benzenesulfonamide TFA Salt], in test [1] (Table 3-1), the inhibition at 3 µM turned out to be 99%. The inhibitory rate in test [2] (Table 4-1, TFA Salt) is given as 63%. In the case of `Nc1ncc(C#Cc2c(F)ccc(NS(=O)(=O)c3cc(Cl)ccc3Cl)c2F)cn1` [Example 13, N-(3-((2-aminopyrimidin-5-yl)ethynyl)-2,4-difluorophenyl)-2,5-dichlorobenzenesulfonamide TFA Salt], the inhibition at 0.1 µM in test [2] (Table 4-1) was 70%. Turning to `Cc1ccc(Cl)cc1S(=O)(=O)Nc1ccc(F)c(C#Cc2cnc3[nH]ncc3c2)c1F` [Example 15, 5-chloro-N-(2,4-difluoro-3-(1H-pyrazolo[3,4-b]pyridin-5-ylethynyl)phenyl)-2-methylbenzenesulfonamide], the inhibition at 3 µM in test [1] (Table 3-1) is 100%. For the same compound, the inhibition at 0.1 µM in test [2] (Table 4-1) stood at 75%. In the case of `Nc1ncc(C#Cc2c(F)ccc(NS(=O)(=O)c3cc(Cl)ccc3Cl)c2F)cn1` [Example 17, N-(3-((2-aminopyrimidin-5-yl)ethynyl)-2,4-difluorophenyl)-2,5-dichlorobenzenesulfonamide], the inhibition at 3 µM in test [1] (Table 3-1) was determined as 99%. In addition, the inhibitory rate in test [2] (Table 4-1) was found to be 73%. `Cc1cc(Br)cc(S(=O)(=O)Nc2ccc(F)c(C#Cc3cnc4[nH]ncc4c3)c2F)c1` [Example 18, 3-bromo-N-(2,4-difluoro-3-(1H-pyrazolo[3,4-b]pyridin-5-ylethynyl)phenyl)-5-methylbenzenesulfonamide]: the inhibition at 3 µM in test [1] (Table 3-1) is 100%. Also, the inhibition at 0.1 µM in test [2] (Table 4-1) was 63%. In the case of `Cc1ccc(Cl)cc1S(=O)(=O)Nc1ccc(F)c(C#Cc2cnc(N)nc2)c1F` [Example 19, N-(3-((2-aminopyrimidin-5-yl)ethynyl)-2,4-difluorophenyl)-5-chloro-2-methylbenzenesulfonamide], the inhibition at 3 µM in test [1] (Table 3-1) turned out to be 98%. The same compound came in with an inhibition at 0.1 µM in test [2] (Table 4-1) of 87%. Consider `O=S(=O)(Nc1ccc(F)c(C#Cc2cnc3[nH]ncc3c2)c1F)c1cc(Cl)cc(Cl)c1Cl` [Example 20, 2,3,5-trichloro-N-(2,4-difluoro-3-(1H-pyrazolo[3,4-b]pyridin-5-ylethynyl)phenyl)benzenesulfonamide], for which the inhibition at 3 µM in test [1] (Table 3-1) was found to be 100%. Also, the inhibition at 0.1 µM in test [2] (Table 4-1) came out at 63%.

As for `O=S(=O)(Nc1ccc(F)c(C#Cc2cnc3[nH]ncc3c2)c1F)c1c(Cl)c(Cl)cc(Cl)c1Cl` [Example 23, 2,3,5,6-tetrachloro-N-(2,4-difluoro-3-(1H-pyrazolo[3,4-b]pyridin-5-ylethynyl)phenyl)benzenesulfonamide], in test [1] (Table 3-1), the inhibition at 3 µM came out at 100%. Also, the inhibition at 0.1 µM in test [2] (Table 4-1) turned out to be 72%. As to `O=S(=O)(Nc1ccc(F)c(C#Cc2cnc3[nH]ncc3c2)c1F)c1cc(Br)ccc1F` [Example 24, 5-bromo-N-(2,4-difluoro-3-(1H-pyrazolo[3,4-b]pyridin-5-ylethynyl)phenyl)-2-fluorobenzenesulfonamide TFA Salt], the inhibition at 3 µM in test [1] (Table 3-1) stood at 99%. For the same compound, the inhibition at 0.1 µM in test [2] (Table 4-1) was 37%. Taken in the same sequence, the figures for `O=S(=O)(Nc1ccc(F)c(C#Cc2cnc3[nH]ncc3c2)c1F)c1cc(Cl)cc(Cl)c1` [Example 25, 3,5-dichloro-N-(2,4-difluoro-3-(1H-pyrazolo[3,4-b]pyridin-5-ylethynyl)phenyl)benzenesulfonamide] were 99% and 44%.

As for `O=S(=O)(Nc1ccc(F)c(C#Cc2cnc3[nH]ncc3c2)c1F)c1cc(Cl)ccc1F` [Example 26, 5-chloro-N-(2,4-difluoro-3-(1H-pyrazolo[3,4-b]pyridin-5-ylethynyl)phenyl)-2-fluorobenzenesulfonamide TFA Salt], in test [1] (Table 3-1), the inhibition at 3 µM was 99%. In test [2] (Table 4-1), this compound had an inhibition at 0.1 µM of 41%. In the case of `Cc1ccc(Cl)cc1S(=O)(=O)Nc1ccc(F)c(C#Cc2cnc(N)c(C)n2)c1F` [Example 31, N-(3-((5-amino-6-methylpyrazin-2-yl)ethynyl)-2,4-difluorophenyl)-5-chloro-2-methylbenzenesulfonamide], the inhibition at 3 µM in test [1] (Table 3-1) was 99%. The same compound came in with an inhibition at 0.1 µM in test [2] (Table 4-1) of 53%. Taken in the same sequence, the figures for `COc1c(Cl)cc(Cl)cc1S(=O)(=O)Nc1ccc(F)c(C#Cc2cnc3[nH]ncc3c2)c1F` [Example 33, 3,5-dichloro-N-(2,4-difluoro-3-(1H-pyrazolo[3,4-b]pyridin-5-ylethynyl)phenyl)-2-methoxybenzenesulfonamide] were 98% and 40%. Regarding `CNc1ncc(C#Cc2c(F)ccc(NS(=O)(=O)c3cc(Cl)ccc3Cl)c2F)cn1` [Example 37, 2,5-dichloro-N-(2,4-difluoro-3-((2-(methylamino)pyrimidin-5-yl)ethynyl)phenyl)benzenesulfonamide TFA Salt], the inhibition at 3 µM in test [1] (Table 3-1) worked out at 98%. The inhibition at 0.1 µM in test [2] (Table 4-1) was 45%. Taken in the same sequence, the figures for `O=S(=O)(Nc1ccc(F)c(C#Cc2cnc3[nH]ncc3c2)c1F)c1cccc(Cl)c1Cl` [Example 38, 2,3-dichloro-N-(2,4-difluoro-3-(1H-pyrazolo[3,4-b]pyridin-5-ylethynyl)phenyl)benzenesulfonamide TFA Salt] were 99% and 22%. On to `COc1c(CO)cc(Cl)cc1S(=O)(=O)Nc1ccc(F)c(C#Cc2cnc(N)nc2)c1F` [Example 129, N-(3-((2-aminopyrimidin-5-yl)ethynyl)-2,4-difluorophenyl)-5-chloro-3-(hydroxymethyl)-2-methoxybenzenesulfonamide], for which the inhibition at 3 µM in test [1] (Table 3-2) was determined as 99%. The same compound displayed an inhibition at 0.1 µM in test [2] (Table 4-2) of 70%.

Consider `COc1c(CO)cc(Cl)cc1S(=O)(=O)Nc1ccc(F)c(C#Cc2cnc(NCC3(O)CC3)nc2)c1F` [Example 154, 5-chloro-N-(2,4-difluoro-3-((2-(((1-hydroxycyclopropyl)methyl)amino)pyrimidin-5-yl)ethynyl)phenyl)-3-(hydroxymethyl)-2-methoxybenzenesulfonamide], for which the inhibition at 0.1 µM in test [2] (Table 4-2) stood at 70%. As for `C[C@H](CO)Nc1ncc(C#Cc2c(F)ccc(NS(=O)(=O)c3cc(Cl)cc4c3OCC4O)c2F)cn1` (stereo partly drawn) [Example 187, 5-chloro-N-(2,4-difluoro-3-((2-(((2R)-1-hydroxypropan-2-yl)amino)pyrimidin-5-yl)ethynyl)phenyl)-3-hydroxy-2,3-dihydro-1-benzofuran-7-sulfonamide], in test [2] (Table 4-2), the inhibitory rate came out at 64%. `Cn1ncc2c(S(=O)(=O)Nc3ccc(F)c(C#Cc4cnc(N)nc4)c3F)cc(Cl)cc21` [Example 192, N-(3-((2-aminopyrimidin-5-yl)ethynyl)-2,4-difluorophenyl)-6-chloro-1-methyl-1H-indazole-4-sulfonamide] returned an inhibition at 0.1 µM in test [2] (Table 4-2) of 43%.
